From patent publication US12252472B1, “Barbituric acid derivatives, their preparation and use thereof as leukocyte transmigration inhibitors and for treating inflammatory diseases, autoimmune diseases and cancer” (BAR-ILAN UNIVERSITY, priority 2017, dated 2025) come the findings set out here.

Experiment [1] deals with primary human monocytes on TNF-alpha-activated HUVECs. In words: Shear flow assay: monocyte adhesion and transmigration on TNFα-activated HUVECs. Format: cell-based. An excerpt:
A flow assay that allows detailed analysis of individual leukocyte interactions with endothelial cells (ECs), described in Bradfield et al. (Bradfield et al., 2016, PloS One, July 21; 11(7); Bradfield et al., 2007, Blood. October 1; 110(7):2545-55) was used for evaluation of the biological effects of the compounds according to the invention. This method allows the determination of the possible effects of the compounds on three major phases in leukocyte migration: the capture of free non-bound leukocytes by endothelium, migration of leukocytes on the endothelium surface, and transendothelial migration (transmigration) of human leukocytes through the HUVECs layer. Post transmigrational events can also be monitored by tracking individual leukocytes. […] Human umbilical vein endothelial cells (HUVECs) were cultivated in the plastic channel of the flow chamber, and human leukocyte were flowed over them using a calibrated pump, allowing monocyte capture, adhesion and migration to be monitored.
Human umbilical vein endothelial cells (HUVEC) were isolated by collagenase treatment of umbilical veins as previously described (Wall, R. T., et al., Factors influencing endothelial cell proliferation in vitro. J Cell Physiol, 1978. 96(2): p. 203-13) and maintained in M199 containing 20% fetal calf serum (FCS), 15 μg/mL endothelial cell growth supplement (Upstate Biotechnology, Lake Placid, NY), 100 μg/mL heparin, 50 μM hydrocortisone, and 10 μg/mL vitamin C. Cells were cultured up to a maximum of passage 5.
Peripheral blood mononuclear cells (PBMCs) were first isolated from blood of healthy donors followed by monocyte purification using a monocyte isolation kit (Miltenyi Biotec, Bergisch Gladbach, Germany). Purity and activity of monocytes were controlled by flow cytometry by labelling with anti-CD14 and anti-CD62L. Only populations of 90% or more double positive cells were used.
(§1) Flow assays were conducted as described in a previous study (Bradfield, P. F., et al., JAM-C regulates unidirectional monocyte transendothelial migration in inflammation. Blood, 2007. 110(7): p. 2545-55). HUVECs were cultured at 1×10^5 cells/slide on Ibidi 6-chamber slides (80606; Ibidi) before treatment with TNFα (500 U/mL) for 6-10 hours. An individual chamber outlet was then attached to a calibrated pump (74 900; Cole Partner, Vernon Hills, IL) and flow was generated by perfusing wash buffer (M199 with 0.15% BSA) or a monocyte suspension (2.5×10^6 cells/mL) over the HUVEC monolayer. The flow rate was representative of shear rates in small venules (0.05 Pa). Observations made using phase-contrast microscopy (Model: Axiovert 100; Objective: 20×/0.3 NA air; Carl Zeiss) were recorded using a high-resolution camera (D70; Nikon, Zurich, Switzerland). Individual images were recorded every 30 seconds with Nikon capture software (v4.2) and compiled into movie sequences using Adobe Photoshop (CS6) and Image J (v1.5d), allowing analysis of individual monocytes over large areas. The tested compounds, e.g. compounds of the general Formula (I), were maintained at the specified concentration in all wash buffers throughout the course of the experiment. The compounds were preincubated separately on both HUVECs and monocytes 15 minutes prior to flow co-culture. HUVEC monolayers were washed for 10 minutes prior to a compound wash-in step to allow for this preincubation period. The monocyte suspension was then perfused over HUVECs for 4 minutes followed by 20 to 60 minutes with wash buffer. Time-lapse recording was started upon monocyte first-contact with the monolayer. Monocyte adhesion data are presented as the total number of monocytes per unit field. Transmigration events are presented as a percentage of total monocytes captured from flow per unit field. All experiments were carried out using quadruplicate fields and are presented as a mean value (±SEM).
A timeline is shown to represent the positioning and timing of an individual monocyte during movie analysis (marked ‘Timeline’). […]

In experiment [2] the test system is C57BL/6J mice. Description: MOG35-55/CFA-induced experimental autoimmune encephalomyelitis (EAE). Format: in vivo, mouse. The following applies: 15 mg/kg SC q3w. The procedure:
Female 7-8 weeks old C57BL/6J mice were immunized with an emulsion of MOG35-55 in CFA according to standard protocol, followed by administration of pertussis toxin (PTX) in PBS. After the onset of EAE (9 days), mice were assigned by rolling enrollment to the groups one at a time as they show the first signs of EAE (paralysis score 0.5-1). Treatment group was administered with Formula 2 at 15 mg/kg dose at q3w regiment by SC injections, mock treated (vehicle) control group was administered with similar volume as a treated group. Body weight of animals was determined prior to the experiment and the administered volume of Formula 2 formulation was adjusted according to the body weight. During the experiment, mice body weight and paralysis clinical score was monitored daily.
Mice from all groups were euthanized with isoflurane 24 hours post last dose administration. Two-way ANOVA statistical analysis was performed.

In experiment [3] the test system is B cells. In words: B-lymphocyte adhesion and transmigration, MesenFlow assay. It counts as cell-based. The following applies: 30 μM. The procedure: as §1, with “HUVEC monolayers were washed for 10 minutes prior to a compound wash-in step to allow for this preincubation period. The monocyte suspension was then perfused over HUVECs for 4 minutes followed by 20 to 60 minutes with wash buffer. Time-lapse recording was started upon monocyte first-contact with the monolayer. Monocyte adhesion data are presented as the total number of monocytes per unit field. Transmigration events are presented as a percentage of total monocytes captured from flow per unit field. All experiments were carried out using quadruplicate fields and are presented as a mean value (±SEM).” left out

In general, IC50 refers to the concentration needed to halve the response being measured.

Structures are written as SMILES.

Regarding `COC(=O)c1ccc(COc2c(C=C3C(=O)NC(=O)NC3=O)cccc2C(C)(C)C)cc1` [Formula 2, methyl 4-((2-(tert-butyl)-6-((2,4,6-trioxotetrahydropyrimidin-5(2H)-ylidene)methyl)phenoxy)methyl) benzoate], the monocyte transmigration result in experiment [1] (30 μM) was “completely blocked”; in experiment [1] (dose response, 3 μM) it was “partial blocking”; in experiment [1] (dose response, 30-100 μM) it was “full blocking”. Also, the Monocyte adhesion entry in experiment [1] (30 μM, flow 0.05 Pa for 30 minutes) is reported as “unaffected”. Further, in experiment [1] (30 μM, monocytes on TNF-activated HUVECs under flow 0.05 Pa), the “Level of Transmigration Blockage (%)” value was found to be 100%. In experiment [1] (Homo sapiens, HUVEC, flow 0.05 Pa, n=3), this molecule registered an IC50 of 2.4 µM. For the same molecule, in experiment [1] (Homo sapiens, HUVEC, monocyte transmigration inhibition, read-out: maximal efficacy), the Emax is 48%. Besides, the “concentration below which not active on monocyte transmigration” value in experiment [1] (dose response, 100 μM to 3 nM) was “below 300 nM”. Moreover, in experiment [1] (monocyte transmigration, read at 10, 15, 20 and 25 minutes), the “time of the maximal effect” value amounted to 20 min. The body weight entry in experiment [2] (by day 20) is on record as “body weight recovery to that recorded on the onset of the disease”. Moreover, the “paralysis score, decrease” value in experiment [2] (by day 20) is reported as “from 2 to 1.5”. Moreover, the “body weight difference between treated and non-treated group” value in experiment [2] (end of the experiment, average) is listed as “approximately 4 g”. For the same molecule, in experiment [2] (starting from day 10), the paralysis score result is “stable”. The “B cell adhesion and transmigration” value in experiment [3] is reported as “dramatic blocking effect”.
